The record followed here is US20130344026A1, “Dimeric Smac Mimetics” (priority 2009, published 2013).

The experiment deals with PANC-1 cells. Description: cell viability assay in PANC-1 cells (compound alone, + 100 ng/ml TNFa, + 300 ng/ml TRAIL). In kind it is cell-based.
Where [1] appears, read: Homo sapiens, PANC-1, compound alone, Tables 6-10, read-out: IC50 (μM) in cell viability assay in PANC-1 cells: Compound alone.
[2] abbreviates: with 100 ng/ml TNFa, Tables 6-10, read-out: IC50 (μM) in cell viability assay in PANC-1 cells: Compound + 100 ng/ml TNFa.
[3] abbreviates: with 300 ng/ml TRAIL, Tables 6-10, read-out: IC50 (μM) in cell viability assay in PANC-1 cells: Compound + 300 ng/ml TRAIL.
Where [4] appears, read: Homo sapiens, PANC-1 cells, compound alone, read-out: IC50 (uM) in cell viability assay in PANC-1 cells, Cmpnd alone.
The mark [5] stands for this setting: PANC-1 cells, + 100 ng/ml TNFa, read-out: IC50 (uM) in cell viability assay in PANC-1 cells, Cmpnd + 100 ng/ml TNFa.
Where [6] appears, read: PANC-1 cells, + 300 ng/ml TRAIL, read-out: IC50 (uM) in cell viability assay in PANC-1 cells, Cmpnd + 300 ng/ml TRAIL.
Setting [7] is: Homo sapiens, PANC-1, compound alone, Tables 15-18, read-out: IC50 (uM) in cell viability assay in PANC-1 cells: Cmpnd alone.

Each structure is given as a SMILES string. Like-named read-outs stand apart in the source and are kept apart here.

In the case of `CN[C@@H](C)C(=O)Nc1nc(CC(=O)NC[C@@H](NC(=O)[C@@H]2CCCN2C(=O)[C@@H](NC(=O)[C@H](C)NC)C(C)(C)C)c2ccccc2)cs1` [Compound 193], the IC50 under setting [1] was greater than 1 µM, the IC50 under setting [2] is greater than 1 µM and the IC50 under setting [3] is greater than 1 µM.
On to `CN[C@@H](C)C(=O)N[C@H]1CCN(C(=O)c2ccc(C(=O)N[C@H]3C[C@@H](C(=O)N[C@@H]4CCCc5ccccc54)N(C(=O)[C@@H](NC(=O)[C@H](C)NC)C(C)(C)C)C3)cc2)C1` [Compound 187], for which the IC50 reads like this: under setting [1], greater than 1 µM; under setting [2], 0.62 µM; under setting [3], 0.6 µM.
As for `CN[C@@H](C)C(=O)N[C@H](C(=O)N1C[C@@H](NC(=O)CCCCCCCCC(=O)N[C@H]2C[C@@H](C(=O)N[C@H](C)c3ccccc3)N(C(=O)[C@@H](NC(=O)[C@H](C)NC)C(C)(C)C)C2)C[C@H]1C(=O)N[C@H](C)c1ccccc1)C(C)(C)C` [Compound P3-93], the IC50 under setting [4] was greater than 1 µM, the IC50 under setting [5] was 0.012 µM and the IC50 under setting [6] was 0.043 µM.
`CN[C@@H](CO)C(=O)N[C@H](C(=O)N1C[C@@H](NC(=O)c2cc(C(=O)N[C@H]3C[C@@H](C(=O)N[C@H](C)c4ccccc4)N(C(=O)[C@@H](NC(=O)[C@H](CO)NC)C(C)(C)C)C3)[nH]n2)C[C@H]1C(=O)N[C@H](C)c1ccccc1)C(C)(C)C` [Compound P3-91]: the IC50 is greater than 1 µM under setting [4], 0.152 µM under setting [5] and 0.225 µM under setting [6].
As to `CN[C@@H](C)C(=O)N[C@H](C(=O)N[C@@H](CCNC(=O)CC[C@H](NC(=O)[C@@H](NC(=O)[C@H](C)NC)C(C)(C)C)C(=O)N[C@@H]1CCCc2ccccc21)C(=O)N[C@@H]1CCCc2ccccc21)C(C)(C)C` [Compound 171], the IC50 by setting is: under setting [1], greater than 1 µM; under setting [2], 0.044 µM; under setting [3], 0.063 µM.
For the compound `CN[C@@H](C)C(=O)N[C@H](C(=O)N1C[C@@H](NC(=O)c2ccc(C#Cc3ccc(C(=O)N[C@H]4C[C@@H](C(=O)N[C@@H]5CCCc6ccccc65)N(C(=O)[C@@H](NC(=O)[C@H](C)NC)C(C)(C)C)C4)cc3)cc2)C[C@H]1C(=O)N[C@@H]1CCCc2ccccc21)C(C)(C)C` [Compound P3-100], the IC50 runs as follows: under setting [4], greater than 1 µM; under setting [5], 0.054 µM; under setting [6], 0.055 µM.
`CN[C@@H](C)C(=O)N[C@@H](CCCCCC[C@H](NC(=O)[C@H](C)NC)C(=O)N1CCCC[C@H]1C(=O)N[C@@H]1CCCc2ccccc21)C(=O)N1CCCC[C@H]1C(=O)N[C@@H]1CCCc2ccccc21` [Compound 94]: the IC50 is greater than 1 µM under setting [1], 0.014 µM under setting [2] and 0.049 µM under setting [3].
Turning to `CN[C@@H](C)C(=O)N[C@H](C(=O)N1CCC[C@H]1c1nc(C(=O)NCCC#CC#CCCNC(=O)c2nc([C@@H]3CCCN3C(=O)[C@@H](NC(=O)[C@H](C)NC)C(C)(C)C)oc2-c2c[nH]c3ccccc23)c(-c2c[nH]c3ccccc23)o1)C(C)(C)C` [Compound P4-24], the IC50 under setting [7] is greater than 1 µM.
Regarding `CN[C@@H](C)C(=O)N[C@H](C(=O)N1CCC[C@H]1Cn1cnnc1CCc1ccccc1)[C@@H](C)OCCCCCCO[C@H](C)[C@H](NC(=O)[C@H](C)NC)C(=O)N1CCC[C@H]1Cn1cnnc1CCc1ccccc1` [Compound 86], the IC50 reads like this: under setting [1], greater than 1 µM; under setting [2], greater than 1 µM; under setting [3], greater than 1 µM.
Regarding `CN[C@@H](C)C(=O)N[C@@H](CCCCNC(=O)c1cccc(C(=O)NCCCC[C@H](NC(=O)[C@H](C)NC)C(=O)N2CCC[C@H]2Cn2nnnc2Sc2ccccc2)c1)C(=O)N1CCC[C@H]1Cn1nnnc1Sc1ccccc1` [Compound 207], the IC50 is greater than 1 µM under setting [1], 0.263 µM under setting [2] and 0.398 µM under setting [3].
The matching figures for `CCC1(NC(=O)[C@@H]2C[C@H](NC(=O)c3cc(C(=O)N[C@H]4C[C@@H](C(=O)NC5(CC)CCCc6ccccc65)N(C(=O)[C@@H](NC(=O)[C@H](C)NC)C(C)(C)C)C4)[nH]n3)CN2C(=O)[C@@H](NC(=O)[C@H](C)NC)C(C)(C)C)CCCc2ccccc21` (stereo partly shown) [Compound 52]: greater than 1 µM, 0.046 µM and 0.052 µM.
As to `CN[C@@H](C)C(=O)N[C@H](C(=O)N1C[C@@H](NC(=O)c2cccc(C(=O)N[C@H]3C[C@@H](C(=O)NC4CCOc5ccccc54)N(C(=O)[C@@H](NC(=O)[C@H](C)NC)C(C)(C)C)C3)c2)C[C@H]1C(=O)NC1CCOc2ccccc21)C(C)(C)C` (single isomer, unassigned) [Compound 65], the IC50 is greater than 1 µM under setting [1], 0.265 µM under setting [2] and 0.328 µM under setting [3].
The matching figures for `CN[C@@H](C)C(=O)N[C@H](C(=O)N1C[C@@H](NC(=O)c2cccc(C(=O)N[C@H]3C[C@@H](C(=O)NC4CCCc5cccc(F)c54)N(C(=O)[C@@H](NC(=O)[C@H](C)NC)C(C)(C)C)C3)c2)C[C@H]1C(=O)NC1CCCc2cccc(F)c21)C(C)(C)C` (single isomer, unassigned) [Compound 70]: greater than 1 µM, 0.0011 µM and 0.0033 µM.
The corresponding values for `CN[C@@H](C)C(=O)N[C@H](C(=O)N[C@@H](CCNC(=O)c1cc(N)cc(C(=O)N[C@H]2C[C@@H](C(=O)N[C@@H]3CCCc4ccccc43)N(C(=O)[C@@H](NC(=O)[C@H](C)NC)C(C)(C)C)C2)c1)C(=O)N[C@@H]1CCCc2ccccc21)C(C)C` [Compound 183] are greater than 1 µM, 0.044 µM and 0.061 µM.
Turning to `CN[C@@H](C)C(=O)N[C@@H](CCCCCC[C@H](NC(=O)[C@H](C)NC)C(=O)N1CCC[C@H]1CNC(=O)c1ccccn1)C(=O)N1CCC[C@H]1CNC(=O)c1ccccn1` [Compound P2-47], the IC50 under setting [7] was greater than 1 µM; the IC50 (with 100 ng/ml TNFa, Tables 15-18, read-out: IC50 (uM) in cell viability assay in PANC-1 cells: Cmpnd + 100 ng/ml TNFa) amounted to 0.108 µM; the IC50 (with 300 ng/ml TRAIL, Tables 15-18, read-out: IC50 (uM) in cell viability assay in PANC-1 cells: Cmpnd + 300 ng/ml TRAIL) came out at 0.153 µM.
On to `CN[C@@H](C)C(=O)N[C@H](C(=O)N1C[C@@H](NC(=O)c2cccc(C(=O)N[C@H]3C[C@@H](C(=O)NCCc4ccc(O)cc4)N(C(=O)[C@@H](NC(=O)[C@H](C)NC)C(C)(C)C)C3)c2)C[C@H]1C(=O)NCCc1ccc(O)cc1)C(C)(C)C` [Compound 3], for which the IC50 by setting is: under setting [1], greater than 1 µM; under setting [2], 0.5 µM; under setting [3], 0.42 µM.
The corresponding values for `CN[C@@H](C)C(=O)N[C@H](C(=O)N1CCC[C@H]1C(=O)N[C@H]1c2ccccc2C[C@H]1OCC#CC#CCO[C@@H]1Cc2ccccc2[C@@H]1NC(=O)[C@@H]1CCCN1C(=O)[C@@H](NC(=O)[C@H](C)NC)C(C)(C)C)C(C)(C)C` [Compound 119] are greater than 1 µM, 0.0014 µM and 0.0018 µM.
With `CN[C@@H](C)C(=O)N[C@H](C(=O)N1C[C@@H](NC(=O)c2cc(C(=O)N[C@H]3C[C@@H](C(=O)N[C@H](C)c4ccccc4)N(C(=O)[C@@H](NC(=O)[C@H](C)NC)C(C)(C)C)C3)n(C)n2)C[C@H]1C(=O)N[C@H](C)c1ccccc1)C(C)(C)C` [Compound P3-107], the IC50 was greater than 1 µM under setting [4], 0.015 µM under setting [5] and 0.02 µM under setting [6].
As to `CN[C@@H](C)C(=O)NC(C(=O)N[C@@H](CCNC(=O)CCc1cn([C@H]2C[C@@H](C(=O)N[C@@H]3CCCc4ccccc43)N(C(=O)[C@@H](NC(=O)[C@H](C)NC)C(C)(C)C)C2)nn1)C(=O)N[C@H](C)C(C)C)C(C)(C)C` (stereo partly shown) [Compound 198], the IC50 is greater than 1 µM under setting [1], 0.109 µM under setting [2] and 0.069 µM under setting [3].
With `CN[C@@H](C)C(=O)N[C@H](C(=O)N1C[C@@H](n2cc(CCC(=O)N[C@@H]3CC(C(=O)N[C@H](C)c4ccccc4)N(C(=O)C(NC(=O)[C@H](CO)NC)C(C)(C)C)C3)nn2)C[C@H]1C(=O)N[C@@H]1CCCc2ccccc21)C(C)(C)C` (stereo partly shown) [Compound 205], the IC50 is greater than 1 µM under setting [1], 0.04 µM under setting [2] and 0.059 µM under setting [3].
The matching figures for `CN[C@@H](C)C(=O)N[C@H](C(=O)N1C[C@@H](NC(=O)c2ccc(C(=O)N3CCN(C(=O)[C@H](C)NC)CC3)cc2)C[C@H]1C(=O)N[C@@H]1CCCc2ccccc21)C(C)(C)C` [Compound 188]: greater than 1 µM, 0.56 µM and 0.55 µM.
Turning to `CN[C@@H](C)C(=O)N[C@H](C(=O)N[C@@H](CCNC(=O)c1cc(C(=O)N[C@H]2C[C@@H](C(=O)N[C@@H]3CCCc4ccccc43)N(C(=O)[C@@H](NC(=O)[C@H](C)NC)C(C)(C)C)C2)cc([N+](=O)[O-])c1)C(=O)N[C@@H]1CCCc2ccccc21)C(C)C` [Compound 182], the IC50 under setting [1] is greater than 1 µM, the IC50 under setting [2] came out at 0.043 µM and the IC50 under setting [3] amounted to 0.08 µM.
The matching figures for `CN[C@@H](C)C(=O)N[C@@H](C)C(=O)N1C[C@@H](NC(=O)c2cccc(C(=O)N[C@H]3C[C@@H](C(=O)N[C@@H]4CCCc5ccccc54)N(C(=O)[C@@H](NC(=O)[C@H](C)NC)C(C)(C)C)C3)c2)C[C@H]1C(=O)N[C@H](C)c1ccccc1` [Compound 172]: greater than 1 µM, 0.025 µM and 0.028 µM.
The matching figures for `CN[C@@H](C)C(=O)N[C@@H](CCCCCC[C@H](NC(=O)[C@H](C)NC)C(=O)N1CCC[C@H]1CC(=O)N[C@H](C)c1ccccc1)C(=O)N1CCC[C@H]1CC(=O)N[C@H](C)c1ccccc1` [Compound 79]: greater than 1 µM, greater than 1 µM and greater than 1 µM.
